Results: patent US10765114B2, “4-amino-6-(pyridyl and 2-substitutedphenyl)-picolinates and 6-amino-2-(pyridyl and 2-substitutedphenyl)-pyrimidine-4-carboxylates and their use as herbicides” (Dow AgroSciences LLC, priority 2013, dated 2020)

What follows are compounds tested on ALOMY (blackgrass) (assay: Post-Emergent Test III (Wheat and Barley)). Settings: Alopecurus myosuroides, post-emergence, 504 h; 35 g ai/ha, postemergence; read-out: Visual Growth Reduction (%) 21 Days After Application, ALOMY.
Format: in vivo, Alopecurus myosuroides
Protocol: (§1) Seeds of the desired test plant species were planted in Sun Gro MetroMix® 306 planting mixture, which typically has a pH of 6.0 to 6.8 and an organic matter content of about 30 percent, in plastic pots with a surface area of 103.2 square centimeters (cm^2). When required to ensure good germination and healthy plants, a fungicide treatment and/or other chemical or physical treatment was applied. The plants were grown for 7-36 days in a greenhouse with an approximate 14 h photoperiod which was maintained at about 18° C. during the day and 17° C. during the night. Nutrients and water were added on a regular basis and supplemental lighting was provided with overhead metal halide 1000-Watt lamps as necessary. The plants were employed for testing when they reached the second or third true leaf stage.
(§2) A weighed amount, determined by the highest rate to be tested, of each test compound was placed in a 25 mL glass vial and was dissolved in 4 mL of a 97:3 v/v mixture of acetone and DMSO to obtain concentrated stock solutions. […] The concentrated stock solutions obtained were diluted with 20 mL of an aqueous mixture containing acetone, water, isopropyl alcohol, DMSO, Agri-Dex crop oil concentrate, and X-77 surfactant in a 48:39:10:1.5:1.5:0.02 v/v ratio to obtain spray solutions containing the highest application rates. Additional application rates were obtained by serial dilution of 12 mL of the high rate solution into a solution containing 2 mL of 97:3 v/v mixture of acetone and DMSO and 10 mL of an aqueous mixture containing acetone, water, isopropyl alcohol, DMSO, Agri-Dex crop oil concentrate, and X-77 surfactant in a 48:39:10:1.5:1.5:0.02 v/v ratio to obtain ½×, ¼×, ⅛× and 1/16× rates of the high rate. Compound requirements are based upon a 12 mL application volume at a rate of 187 liters per hectare (L/ha). Formulated compounds were applied to the plant material with an overhead Mandel track sprayer equipped with 8002E nozzles calibrated to deliver 187 L/ha over an application area of 0.503 square meters at a spray height of 18 inches (43 cm) above the average plant canopy height. Control plants were sprayed in the same manner with the solvent blank.
(§3) The treated plants and control plants were placed in a greenhouse as described above and watered by subirrigation to prevent wash-off of the test compounds. After 21 dAYS, the condition of the test plants as compared with that of the untreated plants was determined visually and scored on a scale of 0 to 100 percent where 0 corresponds to no injury and 100 corresponds to complete kill and presented as indicated in Table A.
(§4) By applying the well-accepted probit analysis as described by J. Berkson in Journal of the American Statistical Society, 48, 565 (1953) and by D. Finney in “Probit Analysis” Cambridge University Press (1952), herbicidal injury of a specific compound at various rates can be used to calculate GR10, GR20, GR50, GR80 and GR90 values, which are defined as growth reduction factors that correspond to the effective dose of herbicide required to provide plant growth reduction (GR) of 10 percent, 20 percent, 50 percent, 80 percent and 90 percent, respectively. Probit analysis was applied to data collected from multiple dose rates of individual compounds utilizing the procedures explained in the following examples. The analysis of those dose rates is captured in the following tables.

Row | Compound | pest or weed control at 35 g/ha
1 | COC(=O)c1nc(-c2ccc(Cl)c(F)c2OC)cc(N)c1Cl [Compound 20] | 45 to 59%

Same assay, conditions: Alopecurus myosuroides, post-emergence, 504 h; 70 g ai/ha, postemergence; read-out: Visual Growth Reduction (%) 21 Days After Application, ALOMY

Row | Compound | pest or weed control at 70 g/ha
2 | COC(=O)c1nc(-c2ccc(Cl)c(F)c2OC)cc(N)c1Cl [Compound 20] | 75 to 84%

Same assay, conditions: Alopecurus myosuroides, post-emergence, 504 h; 140 g ai/ha, postemergence; read-out: Visual Growth Reduction (%) 21 Days After Application, ALOMY

Row | Compound | pest or weed control at 140 g/ha
3 | COC(=O)c1nc(-c2ccc(Cl)c(F)c2OC)cc(N)c1Cl [Compound 20] | 85 to 94%

Same assay, conditions: effective dose for growth reduction of 50 percent, probit analysis

Row | Compound | GR50, ALOMY
4 | COC(=O)c1nc(-c2ccc(Cl)c(F)c2OC)cc(N)c1Cl [Compound 20] | 86 g ai/ha

Same assay, conditions: effective dose for growth reduction of 80 percent, probit analysis

Row | Compound | GR80, ALOMY
5 | COC(=O)c1nc(-c2ccc(Cl)c(F)c2OC)cc(N)c1Cl [Compound 20] | >140 g ai/ha

The compounds below were run on TRZSS (assay: Post-Emergent Test III (Wheat and Barley)). Settings: Triticum aestivum, post-emergence, 504 h; 35 g ai/ha, postemergence; read-out: Visual Growth Reduction (%) 21 Days After Application, TRZSS.
Format: in vivo
Protocol: as §1, §2, §3, §4

Row | Compound | pest or weed control at 35 g/ha
6 | COC(=O)c1nc(-c2ccc(Cl)c(F)c2OC)cc(N)c1Cl [Compound 20] | 85 to 94%

Same assay, conditions: Triticum aestivum, post-emergence, 504 h; 70 g ai/ha, postemergence; read-out: Visual Growth Reduction (%) 21 Days After Application, TRZSS

Row | Compound | pest or weed control at 70 g/ha
7 | COC(=O)c1nc(-c2ccc(Cl)c(F)c2OC)cc(N)c1Cl [Compound 20] | 85 to 94%

Same assay, conditions: Triticum aestivum, post-emergence, 504 h; 140 g ai/ha, postemergence; read-out: Visual Growth Reduction (%) 21 Days After Application, TRZSS

Row | Compound | pest or weed control at 140 g/ha
8 | COC(=O)c1nc(-c2ccc(Cl)c(F)c2OC)cc(N)c1Cl [Compound 20] | 85 to 94%

Same assay, conditions: effective dose for growth reduction of 20 percent, probit analysis

Row | Compound | GR20, TRZSS
9 | COC(=O)c1nc(-c2ccc(Cl)c(F)c2OC)cc(N)c1Cl [Compound 20] | 2 g ai/ha

The compounds below were run on HORSS (assay: Post-Emergent Test III (Wheat and Barley)). Settings: Hordeum vulgare, post-emergence, 504 h; 35 g ai/ha, postemergence; read-out: Visual Growth Reduction (%) 21 Days After Application, HORSS.
Format: in vivo
Protocol: as §1, §2, §3, §4

Row | Compound | pest or weed control at 35 g/ha
10 | COC(=O)c1nc(-c2ccc(Cl)c(F)c2OC)cc(N)c1Cl [Compound 20] | 45 to 59%

Same assay, conditions: Hordeum vulgare, post-emergence, 504 h; 70 g ai/ha, postemergence; read-out: Visual Growth Reduction (%) 21 Days After Application, HORSS

Row | Compound | pest or weed control at 70 g/ha
11 | COC(=O)c1nc(-c2ccc(Cl)c(F)c2OC)cc(N)c1Cl [Compound 20] | 75 to 84%

Same assay, conditions: Hordeum vulgare, post-emergence, 504 h; 140 g ai/ha, postemergence; read-out: Visual Growth Reduction (%) 21 Days After Application, HORSS

Row | Compound | pest or weed control at 140 g/ha
12 | COC(=O)c1nc(-c2ccc(Cl)c(F)c2OC)cc(N)c1Cl [Compound 20] | 85 to 94%

Same assay, conditions: effective dose for growth reduction of 20 percent, probit analysis

Row | Compound | GR20, HORSS
13 | COC(=O)c1nc(-c2ccc(Cl)c(F)c2OC)cc(N)c1Cl [Compound 20] | 7 g ai/ha

The compounds below were run on SETVI (green foxtail) (assay: Post-Emergent Test III (Wheat and Barley)). Settings: Setaria viridis, post-emergence, 504 h; 35 g ai/ha, postemergence; read-out: Visual Growth Reduction (%) 21 Days After Application, SETVI.
Format: in vivo, Setaria viridis
Protocol: as §1, §2, §3, §4

Row | Compound | pest or weed control at 35 g/ha
14 | COC(=O)c1nc(-c2ccc(Cl)c(F)c2OC)cc(N)c1Cl [Compound 20] | 0 to 29%

Same assay, conditions: Setaria viridis, post-emergence, 504 h; 70 g ai/ha, postemergence; read-out: Visual Growth Reduction (%) 21 Days After Application, SETVI

Row | Compound | pest or weed control at 70 g/ha
15 | COC(=O)c1nc(-c2ccc(Cl)c(F)c2OC)cc(N)c1Cl [Compound 20] | 60 to 74%

Same assay, conditions: Setaria viridis, post-emergence, 504 h; 140 g ai/ha, postemergence; read-out: Visual Growth Reduction (%) 21 Days After Application, SETVI

Row | Compound | pest or weed control at 140 g/ha
16 | COC(=O)c1nc(-c2ccc(Cl)c(F)c2OC)cc(N)c1Cl [Compound 20] | 60 to 74%

Same assay, conditions: effective dose for growth reduction of 50 percent, probit analysis

Row | Compound | GR50, SETVI
17 | COC(=O)c1nc(-c2ccc(Cl)c(F)c2OC)cc(N)c1Cl [Compound 20] | 80 g ai/ha

Same assay, conditions: effective dose for growth reduction of 80 percent, probit analysis

Row | Compound | GR80, SETVI
18 | COC(=O)c1nc(-c2ccc(Cl)c(F)c2OC)cc(N)c1Cl [Compound 20] | >140 g ai/ha

Each compound was assayed on KCHSC (kochia) (assay: Post-Emergent Test III (Wheat and Barley)). Settings: Bassia scoparia, post-emergence, 504 h; 35 g ai/ha, postemergence; read-out: Visual Growth Reduction (%) 21 Days After Application, KCHSC.
Format: in vivo, Kochia scoparia
Protocol: as §1, §2, §3, §4

Row | Compound | pest or weed control at 35 g/ha
19 | COC(=O)c1nc(-c2ccc(Cl)c(F)c2OC)cc(N)c1Cl [Compound 20] | 85 to 94%

Same assay, conditions: Bassia scoparia, post-emergence, 504 h; 70 g ai/ha, postemergence; read-out: Visual Growth Reduction (%) 21 Days After Application, KCHSC

Row | Compound | pest or weed control at 70 g/ha
20 | COC(=O)c1nc(-c2ccc(Cl)c(F)c2OC)cc(N)c1Cl [Compound 20] | 95 to 100%

Same assay, conditions: Bassia scoparia, post-emergence, 504 h; 140 g ai/ha, postemergence; read-out: Visual Growth Reduction (%) 21 Days After Application, KCHSC

Row | Compound | pest or weed control at 140 g/ha
21 | COC(=O)c1nc(-c2ccc(Cl)c(F)c2OC)cc(N)c1Cl [Compound 20] | 95 to 100%

Same assay, conditions: effective dose for growth reduction of 50 percent, probit analysis

Row | Compound | GR50, KCHSC
22 | COC(=O)c1nc(-c2ccc(Cl)c(F)c2OC)cc(N)c1Cl [Compound 20] | 2 g ai/ha

Same assay, conditions: effective dose for growth reduction of 80 percent, probit analysis

Row | Compound | GR80, KCHSC
23 | COC(=O)c1nc(-c2ccc(Cl)c(F)c2OC)cc(N)c1Cl [Compound 20] | 10 g ai/ha

These compounds were tested on APESV (windgrass) (assay: Post-Emergent Test III (Wheat and Barley)). Settings: Apera spica-venti, post-emergence, 504 h; 35 g ai/ha, postemergence; read-out: Visual Growth Reduction (%) 21 Days After Application, APESV.
Format: in vivo, Apera spica-venti
Protocol: as §1, §2, §3, §4

Row | Compound | pest or weed control at 35 g/ha
24 | COC(=O)c1nc(-c2ccc(Cl)c(F)c2OC)cc(N)c1Cl [Compound 20] | 0 to 29%

Same assay, conditions: Apera spica-venti, post-emergence, 504 h; 70 g ai/ha, postemergence; read-out: Visual Growth Reduction (%) 21 Days After Application, APESV

Row | Compound | pest or weed control at 70 g/ha
25 | COC(=O)c1nc(-c2ccc(Cl)c(F)c2OC)cc(N)c1Cl [Compound 20] | 60 to 74%

Same assay, conditions: Apera spica-venti, post-emergence, 504 h; 140 g ai/ha, postemergence; read-out: Visual Growth Reduction (%) 21 Days After Application, APESV

Row | Compound | pest or weed control at 140 g/ha
26 | COC(=O)c1nc(-c2ccc(Cl)c(F)c2OC)cc(N)c1Cl [Compound 20] | 75 to 84%

Same assay, conditions: effective dose for growth reduction of 50 percent, probit analysis

Row | Compound | GR50, APESV
27 | COC(=O)c1nc(-c2ccc(Cl)c(F)c2OC)cc(N)c1Cl [Compound 20] | 117 g ai/ha

Same assay, conditions: effective dose for growth reduction of 80 percent, probit analysis

Row | Compound | GR80, APESV
28 | COC(=O)c1nc(-c2ccc(Cl)c(F)c2OC)cc(N)c1Cl [Compound 20] | >140 g ai/ha
